Test results published in ChEMBL document CHEMBL3804830, “Efficient synthesis of new antiproliferative steroidal hybrids using the molecular hybridization approach” (Eur J Med Chem, 2016).

How the values were obtained:
[1] = Antiproliferative activity against human EC109 cells assessed as cell growth inhibition after 72 hrs by MTT assay; type: functional, cell-based; settings: ECa-109, 72 h
[2] = tested on: SH-SY5Y; test: Antiproliferative activity against human SH-SY5Y cells assessed as cell growth inhibition after 72 hrs by MTT assay; type: functional, cell-based
[3] = Antiproliferative activity against human MGC803 cells assessed as cell growth inhibition after 72 hrs by MTT assay; type: functional, cell-based; settings: MGC-803, 72 h
[4] = Antiproliferative activity against human U87 cells assessed as cell growth inhibition after 72 hrs by MTT assay; type: functional, cell-based, U-87MG ATCC; settings: U-87 MG
[5] = tested on: MCF7; test: cells; settings: Homo sapiens, MCF7, 72 h
Description: Antiproliferative activity against human MCF7 cells assessed as cell growth inhibition after 72 hrs by MTT assay

[6] = tested on: SH-SY5Y; test: Induction of apoptosis in human SH-SY5Y cells assessed as early apoptotic cells at 1.25 uM after 24 hrs by Annexin V-FITC/propidium iodide staining based flow cytometry (reference value: 3.3%); type: functional
[7] = tested on: SH-SY5Y; test: Induction of apoptosis in human SH-SY5Y cells assessed as reduction in mitochondrial membrane potential after 24 hrs by JC-1 staining based flow cytometry; type: functional, cell-based
[8] = tested on: SH-SY5Y; test: Induction of apoptosis in human SH-SY5Y cells assessed as late apoptotic cells at 2.5 uM after 24 hrs by Annexin V-FITC/propidium iodide staining based flow cytometry (reference value: 5.7%); type: functional
[9] = tested on: SH-SY5Y; test: Induction of apoptosis in human SH-SY5Y cells assessed as reduction in mitochondrial membrane potential at 5 uM after 24 hrs by JC-1 staining based flow cytometry (reference value: 5.1%); type: functional; parameters: scale not given: the % may be the effect or the level left
[10] = tested on: SH-SY5Y; test: Cell cycle arrest in human SH-SY5Y assessed as accumulation at S phase at 5 uM after 24 hrs by propidium iodide staining based flow cytometry (reference value: 21.34%); type: functional
[11] = tested on: SH-SY5Y; test: Induction of apoptosis in human SH-SY5Y cells assessed as necrotic cells at 2.5 uM after 24 hrs by Annexin V-FITC/propidium iodide staining based flow cytometry (reference value: 2.9%); type: functional
[12] = tested on: SH-SY5Y; test: Induction of apoptosis in human SH-SY5Y cells after 24 hrs by Annexin V-FITC/propidium iodide staining based flow cytometry; type: functional, cell-based
[13] = tested on: SH-SY5Y; test: Induction of apoptosis in human SH-SY5Y cells assessed as early apoptotic cells at 2.5 uM after 24 hrs by Annexin V-FITC/propidium iodide staining based flow cytometry (reference value: 3.3%); type: functional
[14] = tested on: SH-SY5Y; test: Induction of apoptosis in human SH-SY5Y cells assessed as viable cells at 1.25 uM after 24 hrs by Annexin V-FITC/propidium iodide staining based flow cytometry (reference value: 88.2%); type: functional; settings: read-out: Activity
[15] = tested on: SH-SY5Y; test: Induction of apoptosis in human SH-SY5Y cells assessed as late apoptotic cells at 10 uM after 24 hrs by Annexin V-FITC/propidium iodide staining based flow cytometry (reference value: 5.7%); type: functional
[16] = tested on: SH-SY5Y; test: Cell cycle arrest in human SH-SY5Y assessed as accumulation at S phase at 1.25 uM after 24 hrs by propidium iodide staining based flow cytometry (reference value: 21.34%); type: functional
[17] = tested on: SH-SY5Y; test: Induction of apoptosis in human SH-SY5Y cells assessed as reduction in mitochondrial membrane potential at 10 uM after 24 hrs by JC-1 staining based flow cytometry (reference value: 5.1%); type: functional; parameters: scale not given: the % may be the effect or the level left
[18] = tested on: SH-SY5Y; test: Induction of apoptosis in human SH-SY5Y cells assessed as early apoptotic cells at 20 uM after 24 hrs by Annexin V-FITC/propidium iodide staining based flow cytometry (reference value: 3.3%); type: functional
[19] = tested on: SH-SY5Y; test: Induction of apoptosis in human SH-SY5Y cells assessed as reduction in mitochondrial membrane potential at 2.5 uM after 24 hrs by JC-1 staining based flow cytometry (reference value: 5.1%); type: functional; parameters: scale not given: the % may be the effect or the level left
[20] = tested on: SH-SY5Y; test: Induction of apoptosis in human SH-SY5Y cells assessed as early apoptotic cells at 10 uM after 24 hrs by Annexin V-FITC/propidium iodide staining based flow cytometry (reference value: 3.3%); type: functional
[21] = tested on: SH-SY5Y; test: Induction of apoptosis in human SH-SY5Y cells assessed as late apoptotic cells at 20 uM after 24 hrs by Annexin V-FITC/propidium iodide staining based flow cytometry (reference value: 5.7%); type: functional
[22] = tested on: SH-SY5Y; test: Induction of apoptosis in human SH-SY5Y cells assessed as viable cells at 20 uM after 24 hrs by Annexin V-FITC/propidium iodide staining based flow cytometry (reference value: 88.2%); type: functional; settings: read-out: Activity
[23] = tested on: SH-SY5Y; test: Cell cycle arrest in human SH-SY5Y assessed as accumulation at G2/M phase at 1.25 uM after 24 hrs by propidium iodide staining based flow cytometry (reference value: 14.53%); type: functional
[24] = tested on: SH-SY5Y; test: Induction of apoptosis in human SH-SY5Y cells assessed as late apoptotic cells at 1.25 uM after 24 hrs by Annexin V-FITC/propidium iodide staining based flow cytometry (reference value: 5.7%); type: functional
[25] = tested on: SH-SY5Y; test: Cell cycle arrest in human SH-SY5Y assessed as accumulation at S phase at 2.5 uM after 24 hrs by propidium iodide staining based flow cytometry (reference value: 21.34%); type: functional
[26] = tested on: SH-SY5Y; test: Cell cycle arrest in human SH-SY5Y assessed as accumulation at G0/G1 phase at 2.5 uM after 24 hrs by propidium iodide staining based flow cytometry (reference value: 61.80%); type: functional
[27] = tested on: SH-SY5Y; test: Induction of apoptosis in human SH-SY5Y cells assessed as viable cells at 10 uM after 24 hrs by Annexin V-FITC/propidium iodide staining based flow cytometry (reference value: 88.2%); type: functional; settings: read-out: Activity
[28] = tested on: SH-SY5Y; test: Cell cycle arrest in human SH-SY5Y assessed as accumulation at G2/M phase at 5 uM after 24 hrs by propidium iodide staining based flow cytometry (reference value: 14.53%); type: functional
[29] = tested on: SH-SY5Y; test: Cell cycle arrest in human SH-SY5Y assessed as accumulation at G2/M phase after 24 hrs by propidium iodide staining based flow cytometry; type: functional
[30] = tested on: SH-SY5Y; test: Induction of apoptosis in human SH-SY5Y cells assessed as late apoptotic cells at 5 uM after 24 hrs by Annexin V-FITC/propidium iodide staining based flow cytometry (reference value: 5.7%); type: functional
[31] = tested on: SH-SY5Y; test: Induction of apoptosis in human SH-SY5Y cells assessed as viable cells at 2.5 uM after 24 hrs by Annexin V-FITC/propidium iodide staining based flow cytometry (reference value: 88.2%); type: functional; settings: read-out: Activity
[32] = tested on: SH-SY5Y; test: Induction of apoptosis in human SH-SY5Y cells assessed as early apoptotic cells at 5 uM after 24 hrs by Annexin V-FITC/propidium iodide staining based flow cytometry (reference value: 3.3%); type: functional
[33] = tested on: SH-SY5Y; test: Induction of apoptosis in human SH-SY5Y cells assessed as necrotic cells at 5 uM after 24 hrs by Annexin V-FITC/propidium iodide staining based flow cytometry (reference value: 2.9%); type: functional
[34] = tested on: SH-SY5Y; test: Cell cycle arrest in human SH-SY5Y assessed as accumulation at G0/G1 phase at 5 uM after 24 hrs by propidium iodide staining based flow cytometry (reference value: 61.80%); type: functional
[35] = tested on: SH-SY5Y; test: Induction of apoptosis in human SH-SY5Y cells assessed as necrotic cells at 10 uM after 24 hrs by Annexin V-FITC/propidium iodide staining based flow cytometry (reference value: 2.9%); type: functional
[36] = tested on: SH-SY5Y; test: Cell cycle arrest in human SH-SY5Y assessed as accumulation at G0/G1 phase at 1.25 uM after 24 hrs by propidium iodide staining based flow cytometry (reference value: 61.80%); type: functional
[37] = tested on: SH-SY5Y; test: Induction of apoptosis in human SH-SY5Y cells assessed as viable cells at 5 uM after 24 hrs by Annexin V-FITC/propidium iodide staining based flow cytometry (reference value: 88.2%); type: functional; settings: read-out: Activity
[38] = tested on: SH-SY5Y; test: Induction of apoptosis in human SH-SY5Y cells assessed as necrotic cells at 20 uM after 24 hrs by Annexin V-FITC/propidium iodide staining based flow cytometry (reference value: 2.9%); type: functional
[39] = target: Lysine-specific histone demethylase 1A (Homo sapiens, UniProt O60341); test: Inhibition of recombinant LSD1 (157 to 852 amino acids) (unknown origin) expressed in Escherichia coli BL21(DE) using H3K4me2 substrate
[40] = tested on: SH-SY5Y; test: Cell cycle arrest in human SH-SY5Y assessed as accumulation at G2/M phase at 2.5 uM after 24 hrs by propidium iodide staining based flow cytometry (reference value: 14.53%); type: functional
[41] = tested on: SH-SY5Y; test: Induction of apoptosis in human SH-SY5Y cells assessed as necrotic cells at 1.25 uM after 24 hrs by Annexin V-FITC/propidium iodide staining based flow cytometry (reference value: 2.9%); type: functional

## C[C@]12CC[C@H](OC(=O)Cn3cc(CN4C(=O)C(=O)c5cc(F)ccc54)nn3)CC1=CC[C@@H]1[C@@H]2CC[C@]2(C)C(=O)CC[C@@H]12
[1]
  IC50: > 128 µM
[2]
  IC50: 9.25 µM
[3]
  IC50: 58.9 µM
[4]
  IC50: 91.1 µM
[5]
  IC50: > 128 µM

## C[C@]12CC[C@H](OC(=O)Cn3cc(COc4ccc(C(=O)/C=C/c5ccc([N+](=O)[O-])cc5)cc4)nn3)CC1=CC[C@@H]1[C@@H]2CC[C@]2(C)C(=O)CC[C@@H]12
[1]
  IC50: > 128 µM
[2]
  IC50: > 128 µM
[3]
  IC50: 99.5 µM
[4]
  IC50: > 128 µM
[5]
  IC50: > 128 µM

## Cc1ccc(/C=C/C(=O)c2ccc(OCc3cn(CC(=O)O[C@H]4CC[C@@]5(C)C(=CC[C@@H]6[C@@H]5CC[C@]5(C)C(=O)CC[C@@H]65)C4)nn3)cc2)cc1
[1]
  IC50: > 128 µM
[2]
  IC50: 50.1 µM
[3]
  IC50: > 128 µM
[4]
  IC50: > 128 µM
[5]
  IC50: 73.3 µM

## C[C@]12CC[C@H](OC(=O)Cn3cc(CNc4cccc([N+](=O)[O-])c4)nn3)CC1=CC[C@@H]1[C@@H]2CC[C@]2(C)C(=O)CC[C@@H]12
[1]
  IC50: 55.4 µM
[2]
  IC50: > 128 µM
[3]
  IC50: 28.6 µM
[4]
  IC50: > 128 µM
[5]
  IC50: 45.2 µM

## C[C@]12CC[C@H](OC(=O)Cn3cc(CN4C(=O)C(=O)c5c(Cl)ccc(Cl)c54)nn3)CC1=CC[C@@H]1[C@@H]2CC[C@]2(C)C(=O)CC[C@@H]12
[6]
  Activity: 6.1%
[7]
  Activity: Dose-dependent effect
[8]
  Activity: 6.4%
[9]
  Activity: 29.8%
[10]
  Activity: 12.48%
[1]
  IC50: 20.8 µM
[11]
  Activity: 1.6%
[12]
  Activity: Dose-dependent effect
[13]
  Activity: 10.6%
[14]
  viability at 1.25 µM: 80.3%
[15]
  Activity: 59.7%
[16]
  Activity: 24.78%
[17]
  Activity: 40.1%
[18]
  Activity: 32.6%
[19]
  Activity: 9%
[20]
  Activity: 39%
[21]
  Activity: 65.7%
[22]
  viability at 20 µM: 1%
[23]
  Activity: 21.31%
[2]
  IC50: 4.06 µM
[24]
  Activity: 8.4%
[25]
  Activity: 23.48%
[26]
  Activity: 45.36%
[27]
  viability at 10 µM: 0.8%
[28]
  Activity: 27.74%
[29]
  Activity: Dose-dependent effect
[30]
  Activity: 41.4%
[3]
  IC50: 5.95 µM
[31]
  viability at 2.5 µM: 81.4%
[4]
  IC50: 9.57 µM
[32]
  Activity: 18.9%
[33]
  Activity: 7.4%
[5]
  IC50: 32.2 µM
[34]
  Activity: 52.33%
[35]
  Activity: 0.5%
[36]
  Activity: 50.31%
[37]
  viability at 5 µM: 32.4%
[38]
  Activity: 0.8%
[39]
  IC50: 3.18 µM
[40]
  Activity: 23.88%
[41]
  Activity: 5.3%

## C[C@]12CC[C@H](OC(=O)Cn3cc(CN4C(=O)C(=O)c5c(Cl)cccc54)nn3)CC1=CC[C@@H]1[C@@H]2CC[C@]2(C)C(=O)CC[C@@H]12
[1]
  IC50: 124 µM
[2]
  IC50: 18.5 µM
[3]
  IC50: > 128 µM
[4]
  IC50: 33.1 µM
[5]
  IC50: > 128 µM
